What was measured:
HGGX39 [1] = paediatric high-grade glioma line; experiment: area under dose-response curve of % growth inhibition (log2 RLU vs DMSO / staurosporine), 1e-11 to 1e-4 M (% x log10 M); higher = more growth inhibition
Summary of the method: (§1)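 A 10-point threefold dilution series, mean top concentration 35 μM, was applied in triplicate to patient-derived pHGG/DIPG lines and astrocytes on 1% Geltrex-coated 384-well plates for 7 days (3 days for iAstro) at 37 °C, 5% CO2. Per-plate % activity between solvent and positive controls was calculated from log2-transformed CellTiter-Glo luminescence. Area under the curve followed from the trapezoid rule on a log-logistic fit, or on a smoothing spline when the sigmoid fit failed.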

HGGX6 = H3.3 G34R paediatric high-grade glioma line; experiment: as above
Summary of the method: as §1

SUDIPGXIII [2] = diffuse intrinsic pontine glioma line; experiment: as above
Summary of the method: as §1

SUDIPGIV [3] = diffuse intrinsic pontine glioma line; experiment: as above
Summary of the method: as §1

iAstro [4] = astrocyte control; experiment: as above
Summary of the method: as §1

HGGX2 [5] = paediatric high-grade glioma line; experiment: as above
Summary of the method: as §1

DIPGX37 [6] = H3.3 K27M diffuse intrinsic pontine glioma line; experiment: as above
Summary of the method: as §1

SUDIPGVI [7] = diffuse intrinsic pontine glioma line; experiment: as above
Summary of the method: as §1

DIPGX29 [8] = H3.3 K27M diffuse intrinsic pontine glioma line; experiment: as above
Summary of the method: as §1

DIPGX9 [9] = diffuse intrinsic pontine glioma line; experiment: as above
Summary of the method: as §1

DIPGX7 [10] = H3.3 K27M diffuse intrinsic pontine glioma line; experiment: as above
Summary of the method: as §1

HGGX42 [11] = H3.3 G34R paediatric high-grade glioma line; experiment: as above
Summary of the method: as §1

SUDIPGXIX [12] = diffuse intrinsic pontine glioma line; experiment: as above
Summary of the method: as §1

SUDIPGXXI [13] = diffuse intrinsic pontine glioma line; experiment: as above
Summary of the method: as §1

SUDIPGXVII = diffuse intrinsic pontine glioma line; experiment: as above
Summary of the method: as §1

HABS = astrocyte control; experiment: as above
Summary of the method: as §1

HGGX39 [14] = experiment: maximal growth inhibition (yFin) relative to DMSO / staurosporine; higher = more efficacious
Summary of the method: (§2)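 A pin tool was used to add a 10-point threefold dilution series (mean top concentration 35 μM), in triplicate, to patient-derived pHGG/DIPG cell lines and astrocyte controls seeded on 384-well plates coated with 1% Geltrex. After 7 days at 37 °C and 5% CO2 (3 days for iAstro), CellTiter-Glo luminescence was log2-transformed, normalised on each plate to % activity relative to negative (solvent) and positive control wells, and pooled. EC50 and maximal response (yFin) were read from the three- or four-parameter log-logistic fit with the lowest AICc.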

SUDIPGXIII [15] = experiment: as above
Summary of the method: as §2

SUDIPGIV [16] = experiment: as above
Summary of the method: as §2

iAstro [17] = experiment: as above
Summary of the method: as §2

HGGX2 [18] = experiment: as above
Summary of the method: as §2

DIPGX37 [19] = experiment: as above
Summary of the method: as §2

SUDIPGVI [20] = experiment: as above
Summary of the method: as §2

DIPGX29 [21] = experiment: as above
Summary of the method: as §2

DIPGX9 [22] = experiment: as above
Summary of the method: as §2

DIPGX7 [23] = experiment: as above
Summary of the method: as §2

HGGX42 [24] = experiment: as above
Summary of the method: as §2

SUDIPGXIX [25] = experiment: as above
Summary of the method: as §2

SUDIPGXXI [26] = experiment: as above
Summary of the method: as §2

SMILES	area under dose-response curve (HGGX39 [1])	area under dose-response curve (HGGX6)	area under dose-response curve (SUDIPGXIII [2])	area under dose-response curve (SUDIPGIV [3])	area under dose-response curve (iAstro [4])	area under dose-response curve (HGGX2 [5])	area under dose-response curve (DIPGX37 [6])	area under dose-response curve (SUDIPGVI [7])	area under dose-response curve (DIPGX29 [8])	area under dose-response curve (DIPGX9 [9])	area under dose-response curve (DIPGX7 [10])	area under dose-response curve (HGGX42 [11])	area under dose-response curve (SUDIPGXIX [12])	area under dose-response curve (SUDIPGXXI [13])	area under dose-response curve (SUDIPGXVII)	area under dose-response curve (HABS)	maximal growth inhibition (HGGX39 [14]) [%]	maximal growth inhibition (SUDIPGXIII [15]) [%]	maximal growth inhibition (SUDIPGIV [16]) [%]	maximal growth inhibition (iAstro [17]) [%]	maximal growth inhibition (HGGX2 [18]) [%]	maximal growth inhibition (DIPGX37 [19]) [%]	maximal growth inhibition (SUDIPGVI [20]) [%]	maximal growth inhibition (DIPGX29 [21]) [%]	maximal growth inhibition (DIPGX9 [22]) [%]	maximal growth inhibition (DIPGX7 [23]) [%]	maximal growth inhibition (HGGX42 [24]) [%]	maximal growth inhibition (SUDIPGXIX [25]) [%]	maximal growth inhibition (SUDIPGXXI [26]) [%]
O=C(Nc1ccc(Nc2nccc(Nc3cc(C4CCCC4)[nH]n3)n2)cc1)Nc1cccc(C(F)(F)F)c1 [CD532]	200	202	235	276	213	246	238	272	221	305	282	271	283	352	247	174	104	103	112	95.2	111	98.2	111	94.4	115	112	102	112	109
NC1CCC(Nc2cc(-c3cccc(NCc4cccc(F)c4)n3)c(Cl)cn2)CC1 (stereo not drawn) [CDK9-IN-2]	172	199	167	243	135	181	214	209	206	278	249	230	254	326	232	180	99.7	94.9	88.1	85.7	95.4	77.5	71.3	71.8	88.7	90.4	76.7	86.9	95.9
C[C@@H](Oc1cc(-c2cnn(C3CCNCC3)c2)cnc1N)c1c(Cl)ccc(F)c1Cl [CRIZOTINIB]	64	59.1	74.2	96.9	78	107	87.8	112	87.6	112	91.9	117	123	200	87	76.5	92.8	92.3	98.4	87.3	97.4	102	94.1	104	101	104	102	99.6	119
COc1ccc(-c2nc(N3CCOCC3)c3sc(CN(C)c4ncc(C(=O)NO)cn4)cc3n2)cn1 [CUDC-907]	325	264	188	319	181	298	331	290	298	368	294	315	346	470	294	299	112	109	113	73.6	103	119	98	106	108	97.5	105	119	122
CN1CCCN(C(=O)c2cccc(-c3ccc(/C=C4/C(=O)Nc5ccc(Cl)cc54)o3)c2)CC1 [CX-6258]	139	132	112	165	168	162	191	130	179	167	157	184	162	330	137	124	110	104	107	102	108	109	108	112	108	110	106	110	106
COc1cccc2c1C(=O)c1c(O)c3c(c(O)c1C2=O)C[C@@](O)(C(=O)CO)C[C@@H]3O[C@H]1C[C@H](N)[C@H](O)[C@H](C)O1 [DOXORUBICIN]	174	147	170	255	78.3	168	210	159	169	293	213	260	294	420	195	210	101	87.7	97.8	26.4	61.1	86.8	89.1	102	99.9	103	96.5	97.2	95.8
CCCCc1oc2ccc(NS(C)(=O)=O)cc2c1C(=O)c1ccc(OCCCN(CCCC)CCCC)cc1 [DRONEDARONE]	108	106	105	149	134	136	138	105	148	128	194	165	137	225	119	91.3	106	117	122	104	116	99.7	121	104	123	120	119	123	127
CCCc1cc(C)[nH]c(=O)c1CNC(=O)c1cc(-c2ccnc(N3CCN(C)CC3)c2)cc2c1cnn2C(C)C [GSK343]	12.1	66.3	49.9	51.3	58.3	88.2	99.1	66.2	78.7	90.7	71.6	98.2	122	102	12.3	56.1	20.4	87.9	74.3	66.2	113	122	112	120	123	114	115	125	126
CCOC(=O)CCNc1cc(N2CCc3ccccc3CC2)nc(-c2ccccn2)n1 [GSK-J4]	62.2	63.1	61.1	62	97.7	100	67.7	52.4	80.7	103	46.8	87.1	104	213	54.8	71.4	63.1	48.1	61.5	69.4	100	56.1	44.1	69.6	94.2	46.7	100	98.3	112
O=C(c1ccc(Nc2nccc(-c3cc4ccccc4s3)n2)cc1)N1CCC(N2CCCC2)CC1 [IKK 16]	137	88.2	107	132	110	146	183	111	180	105	155	187	127	165	108	93.1	119	114	115	94.4	104	120	104	117	122	108	107	128	120
CC(C)C[C@H](NC(=O)CNC(=O)c1cc(Cl)ccc1Cl)B(O)O [IXAZOMIB]	302	260	266	322	264	242	315	242	210	304	302	234	327	337	247	288	84.7	77.3	89.4	67.4	86	79.9	73.9	77.5	82.6	81.4	70.6	88.1	86.4
Cc1c(C2CCN(CCc3ccccc3)CC2)noc1-c1ccc(Cl)cc1 [L-741,742]	96.9	83.5	21.9	91.7	41.1	35.6	93.6	36.1	100	30.3	118	90.7	22.6	145	40.3	25.7	84	22.9	77.7	43.2	42.8	101	44.4	82.8	22.2	104	74.2	27.2	106

Reference: the supplement of paper PMC8253809
